Laboratory results taken from paper PMC8780549, “Discovery of Small Molecules as Membrane-Bound Catechol-O-methyltransferase Inhibitors with Interest in Parkinson’s Disease: Pharmacophore Modeling, Molecular Docking and In Vitro Experimental Validation Studies” (Pharmaceuticals, 2021).

Legend:
[1] = system: dopaminergic neuronal cells (N27); assay: MTT cytotoxicity assay in N27 cells; format: cell-based; details: Rattus norvegicus, 48 h
[2] = system: normal human dermal fibroblasts (NHDF); assay: MTT cytotoxicity assay in NHDF cells; format: cell-based; details: 48 h
human recombinant MBCOMT = biological target: T1, human recombinant MBCOMT (Homo sapiens, UniProt P21964); assay: In-vitro MBCOMT enzymatic inhibition assay (metanephrine from epinephrine, HPLC)
T1 sequence (P21964 1-271): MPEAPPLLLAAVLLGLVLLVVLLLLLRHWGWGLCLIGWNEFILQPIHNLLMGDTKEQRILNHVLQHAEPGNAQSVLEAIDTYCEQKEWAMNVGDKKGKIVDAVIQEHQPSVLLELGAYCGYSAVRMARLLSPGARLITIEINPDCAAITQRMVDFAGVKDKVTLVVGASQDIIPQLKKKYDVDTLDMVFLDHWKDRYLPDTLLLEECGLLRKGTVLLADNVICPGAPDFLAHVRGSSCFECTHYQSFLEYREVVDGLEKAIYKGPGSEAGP

Liver MBCOMT = details: cited from earlier work
[3] = IC50 (nM), Recombinant MBCOMT, this work, means with 95% confidence (n = 2 to 3)
[4] = IC50, Recombinant MBCOMT, bound stated

| inhibition at 10 µM (human recombinant MBCOMT) | inhibition at 100 µM (human recombinant MBCOMT) | IC50 (human recombinant MBCOMT; [3]) | IC50 (human recombinant MBCOMT; [4]) | SMILES | IC50 [1] | IC50 [2] | IC50 ([2]; Homo sapiens, NHDF) | IC50 ([2]; Homo sapiens) | IC50 (Liver MBCOMT) |
| --- | --- | --- | --- | --- | --- | --- | --- | --- | --- |
| 40% | 43% | – | – | Cc1cc(=O)oc2c(O)c(O)c(C(=O)O)cc12 [ZINC68675288] | – | – | – | – | – |
| 14% | 27% | – | – | COc1ccc(-c2nc(-c3cccc(O)c3O)[nH]c2-c2oc(C)cc(=O)c2O)cc1 [ZINC1547205762] | – | – | – | – | – |
| 56% | 100% | 1080 nM | – | Cc1[nH]nc(-c2ccc(O)c(O)c2O)c1Oc1ccccc1 [ZINC302226] | 52.5 µM | – | – | > 100 µM | – |
| 41% | 46% | – | – | CC(C)Cn1c(-c2cc(-c3ccc(O)c(O)c3O)nc3c2c(O)nn3C(C)C)nc2ccccc21 [ZINC95473053] | – | – | – | – | – |
| 100% | 100% | 944 nM | < 1000 nM | C/C(=N\Cc1ccccc1)c1ccc(O)c(O)c1O [ZINC98288] | 69.8 µM | – | – | > 100 µM | – |
| 72% | 100% | 1540 nM | – | Cc1ccc(/N=C/c2c(O)c(O)cc3ccccc23)cc1 [ZINC825166420] | 17 µM | – | – | 12.1 µM | – |

Further lines, the compound ahead of its results:

| SMILES | inhibition at 10 µM (human recombinant MBCOMT) | inhibition at 100 µM (human recombinant MBCOMT) | IC50 (human recombinant MBCOMT; [3]) | IC50 (human recombinant MBCOMT; [4]) | IC50 [1] | IC50 [2] | IC50 ([2]; Homo sapiens, NHDF) | IC50 ([2]; Homo sapiens) | IC50 (Liver MBCOMT) |
| --- | --- | --- | --- | --- | --- | --- | --- | --- | --- |
| N#Cc1cc(O)c(O)c([N+](=O)[O-])c1 [ZINC27985035] | – | – | – | – | 61.3 µM | 40.3 µM | 40.3 µM | – | – |
| O=Cc1cc([N+](=O)[O-])c(O)c(O)c1Br [ZINC78496496] | 81% | 100% | 470 nM | < 1000 nM | > 100 µM | – | – | 92.9 µM | – |
| Cc1ccc(C(=O)c2cc(O)c(O)c([N+](=O)[O-])c2)cc1 [Tolcapone] | – | – | – | – | – | – | – | – | 0.123 µM |
| COC(=O)c1cc(O)c(O)c([N+](=O)[O-])c1 [ZINC38175059] | 100% | 100% | – | – | – | – | – | – | – |
| C[C@@]1(C(=O)O)CC[C@]2(C)CC[C@]3(C)C4=CC(=O)c5c(cc(O)c(O)c5C=O)[C@@]4(C)CC[C@@]3(C)[C@@H]2C1 [ZINC605706834] | 39% | 34% | – | – | – | – | – | – | – |
| O=c1[nH]cc(F)c(=O)[nH]1 [Compound 5-FU, 5-fluorouracil, reference compound] | – | – | – | – | 4.28 µM | – | – | 5.16 µM | – |
